Laboratory results: patent publication US5502035A, “N-terminus modified analogs of LHRH” (Tap Holdings Inc., priority 1994, dated 1996)
Non-standard residues stand in square brackets, D forms with d. Residues, ends and D or L forms follow the SMILES beside them. *: point of attachment. Shikimoyl = O=C(C1=C[C@@H](O)[C@@H](O)[C@H](O)C1)*; Tetrahydrofuroyl(2R) = O=C([C@H]1CCCO1)*; dPhe(4-Cl) = N[C@H](Cc1ccc(Cl)cc1)C(=O)O; d2Nal = N[C@H](Cc1ccc2ccccc2c1)C(=O)O; Lys(iPr) = CC(C)NCCCC[C@H](N)C(=O)O; NMeY = CN[C@@H](Cc1ccc(O)cc1)C(=O)O; X10 = Cc1ccc(S(=O)(=O)NNC(=O)*)cc1; dCit = NC(=O)NCCC[C@@H](N)C(=O)O; d3Pal = N[C@H](Cc1cccnc1)C(=O)O; Isonicotinoyl = O=C(c1ccncc1)*; Salicyloyl = O=C(c1ccccc1O)*; Nicotinoyl = O=C(c1cccnc1)*; Tos = Cc1ccc(S(=O)(=O)*)cc1; 2Furoyl = O=C(c1ccco1)*; X1 = O=C([C@@H]1CCCO1)*; X3 = O=C([C@@H]1CCOC1)*; X7 = O=C([C@H]1CCOC1)*; X6 = O=C(c1ccoc1)*; azaGly = NNC(=O)O

Molecular target: T1, LHRH (Rattus norvegicus, UniProt P30969)
T1 construct: endogenous in cells; host or cells: rat pituitary cells (own knowledge of the cited Haviv 1989 method)
T1 sequence (P30969 1-327): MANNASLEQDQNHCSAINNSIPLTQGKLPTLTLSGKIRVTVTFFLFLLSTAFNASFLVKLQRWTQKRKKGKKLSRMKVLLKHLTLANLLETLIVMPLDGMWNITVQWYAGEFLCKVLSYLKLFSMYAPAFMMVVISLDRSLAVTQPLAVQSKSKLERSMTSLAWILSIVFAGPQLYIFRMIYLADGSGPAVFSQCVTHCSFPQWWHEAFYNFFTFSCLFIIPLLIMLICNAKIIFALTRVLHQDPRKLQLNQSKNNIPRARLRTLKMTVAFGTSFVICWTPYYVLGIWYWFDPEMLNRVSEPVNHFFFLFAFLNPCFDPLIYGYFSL
Experiment: in vitro test for LHRH antagonist potency (pA2)
Format: cell-based
Details: negative logarithm of the antagonist concentration required to shift the response curve produced by the agonist leuprolide to two-fold higher concentration
Summary of the method: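 Rat LHRH receptor in vitro functional test; pA2 = negative log of the antagonist concentration shifting the leuprolide agonist response curve to two-fold higher concentration.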

Structure (SMILES) | Kb
CC(C)C[C@H](NC(=O)[C@@H](CCCCNC(=O)c1cccnc1)NC(=O)[C@H](Cc1ccc(O)cc1)N(C)C(=O)[C@H](CO)NC(=O)[C@@H](Cc1cccnc1)NC(=O)[C@@H](Cc1ccc(Cl)cc1)NC(=O)[C@@H](Cc1ccc2ccccc2c1)NC(=O)NNC(=O)c1ccco1)C(=O)N[C@@H](CCCCNC(C)C)C(=O)N1CCC[C@H]1C(=O)N[C@H](C)C(N)=O [Example 37a, N-(2-Furoyl)-Azagly-D2Nal-D4ClPhe-D3Pal-Ser-NMeTyr-DLys(Nic)-Leu-Lys(Isp)- Pro-DAlaNH2] (2Furoyl-[azaGly][d2Nal][dPhe(4-Cl)][d3Pal]S[NMeY][dK](Nicotinoyl)L[Lys(iPr)]P[dA]-NH2) | 0.00631 nM
CC(C)C[C@H](NC(=O)[C@@H](CCCCNC(=O)c1cccnc1)NC(=O)[C@H](Cc1ccc(O)cc1)N(C)C(=O)[C@H](CO)NC(=O)[C@@H](Cc1cccnc1)NC(=O)[C@@H](Cc1ccc(Cl)cc1)NC(=O)[C@@H](Cc1ccc2ccccc2c1)NC(=O)NNC(=O)c1cccnc1)C(=O)N[C@@H](CCCCNC(C)C)C(=O)N1CCC[C@H]1C(=O)N[C@H](C)C(N)=O [Example 37b, N-Nicotinyl-Azagly-D2Nal-D4ClPhe-D3Pal-Ser-NMeTyr-DLys(Nic)-Leu-Lys(Isp)-Pro-DAlaNH2] (Nicotinoyl-[azaGly][d2Nal][dPhe(4-Cl)][d3Pal]S[NMeY][dK](Nicotinoyl)L[Lys(iPr)]P[dA]-NH2) | 0.0158 nM
CC(C)C[C@H](NC(=O)[C@@H](CCCCNC(=O)c1cccnc1)NC(=O)[C@H](Cc1ccc(O)cc1)N(C)C(=O)[C@H](CO)NC(=O)[C@@H](Cc1cccnc1)NC(=O)[C@@H](Cc1ccc(Cl)cc1)NC(=O)[C@@H](Cc1ccc2ccccc2c1)NC(=O)NNC(=O)c1ccccc1O)C(=O)N[C@@H](CCCCNC(C)C)C(=O)N1CCC[C@H]1C(=O)N[C@H](C)C(N)=O [Example 37c, N-Salicyl-Azagly-D2Nal-D4ClPhe-D3Pal-Ser-NMeTyr-DLys(Nic)-Leu-Lys(Isp)-Pro-DAlaNH2] (Salicyloyl-[azaGly][d2Nal][dPhe(4-Cl)][d3Pal]S[NMeY][dK](Nicotinoyl)L[Lys(iPr)]P[dA]-NH2) | 0.0251 nM
CC(C)C[C@H](NC(=O)[C@@H](CCCCNC(=O)c1cccnc1)NC(=O)[C@H](Cc1ccc(O)cc1)N(C)C(=O)[C@H](CO)NC(=O)[C@@H](Cc1cccnc1)NC(=O)[C@@H](Cc1ccc(Cl)cc1)NC(=O)[C@@H](Cc1ccc2ccccc2c1)NC(=O)NNC(=O)c1ccncc1)C(=O)N[C@@H](CCCCNC(C)C)C(=O)N1CCC[C@H]1C(=O)N[C@H](C)C(N)=O [Example 37d, N-Isonicotinyl-Azagly-D2Nal-D4ClPhe-D3Pal-Ser-NMeTyr-DLys(Nic)-Leu-Lys(Isp)-Pro-DAlaNH2] (Isonicotinoyl-[azaGly][d2Nal][dPhe(4-Cl)][d3Pal]S[NMeY][dK](Nicotinoyl)L[Lys(iPr)]P[dA]-NH2) | 0.126 nM
Cc1ccc(S(=O)(=O)NNC(=O)N[C@H](Cc2ccc3ccccc3c2)C(=O)N[C@H](Cc2ccc(Cl)cc2)C(=O)N[C@H](Cc2cccnc2)C(=O)N[C@@H](CO)C(=O)N(C)[C@@H](Cc2ccc(O)cc2)C(=O)N[C@H](CCCCNC(=O)c2cccnc2)C(=O)N[C@@H](CC(C)C)C(=O)N[C@@H](CCCCNC(C)C)C(=O)N2CCC[C@H]2C(=O)N[C@H](C)C(N)=O)cc1 [Example 37e, N-Tosyl-Azagly-D2Nal-D4ClPhe-D3Pal-Ser-NMeTyr-DLys(Nic)-Leu-Lys(Isp)-Pro-DAlaNH2] (X10-[d2Nal][dPhe(4-Cl)][d3Pal]S[NMeY][dK](Nicotinoyl)L[Lys(iPr)]P[dA]-NH2) | 0.0224 nM
CC(C)C[C@H](NC(=O)[C@@H](CCCCNC(=O)c1cccnc1)NC(=O)[C@H](Cc1ccc(O)cc1)N(C)C(=O)[C@H](CO)NC(=O)[C@@H](Cc1cccnc1)NC(=O)[C@@H](Cc1ccc(Cl)cc1)NC(=O)[C@@H](Cc1ccc2ccccc2c1)NC(=O)CNC(=O)[C@@H]1CCCO1)C(=O)N[C@@H](CCCCNC(C)C)C(=O)N1CCC[C@H]1C(=O)N(C)CC(N)=O [Example 39, N-(S)-Tetrahydrofur-2-oyl-Gly-D2Nal-D4ClPhe-D3Pal-Ser-NMeTyr-DLys(Nicotinyl)-Leu-Lys(Isp)-Pro-SarNH2] | 0.0155 nM
Cc1ccc(S(=O)(=O)N[C@H](Cc2ccc3ccccc3c2)C(=O)N[C@H](Cc2ccc(Cl)cc2)C(=O)N[C@H](Cc2cccnc2)C(=O)N[C@@H](CO)C(=O)N(C)[C@@H](Cc2ccc(O)cc2)C(=O)N[C@H](CCCNC(N)=O)C(=O)N[C@@H](CC(C)C)C(=O)N[C@@H](CCCNC(=N)N)C(=O)N2CCC[C@H]2C(=O)N[C@H](C)C(N)=O)cc1 [Example 66, N-Tosyl-D2Nal-D4ClPhe-D3Pal-Ser-NMeTyr-DCit-Leu-Arg-Pro-DAlaNH2] (Tos-[d2Nal][dPhe(4-Cl)][d3Pal]S[NMeY][dCit]LRP[dA]-NH2) | 2.63 nM
CC(C)C[C@H](NC(=O)[C@@H](CCCCNC(=O)c1cccnc1)NC(=O)[C@H](Cc1ccc(O)cc1)N(C)C(=O)[C@H](CO)NC(=O)[C@@H](Cc1cccnc1)NC(=O)[C@@H](Cc1ccc(Cl)cc1)NC(=O)[C@@H](Cc1ccc2ccccc2c1)NC(=O)[C@@H]1CCCO1)C(=O)N[C@@H](CCCCNC(C)C)C(=O)N1CCC[C@H]1C(=O)N[C@H](C)C(N)=O [Example 67, N-(S)-Tetrahydrofur-2-oyl-D2Nal-D4ClPhe-D3Pal-Ser-NMeTyr-DLys(Nic)-Leu-Lys(Isp)-Pro-DAlaNH2] (X1-[d2Nal][dPhe(4-Cl)][d3Pal]S[NMeY][dK](Nicotinoyl)L[Lys(iPr)]P[dA]-NH2) | 0.0251 nM
CC(C)C[C@H](NC(=O)[C@@H](CCCCNC(=O)c1cccnc1)NC(=O)[C@H](Cc1ccc(O)cc1)N(C)C(=O)[C@H](CO)NC(=O)[C@@H](Cc1cccnc1)NC(=O)[C@@H](Cc1ccc(Cl)cc1)NC(=O)[C@@H](Cc1ccc2ccccc2c1)NC(=O)[C@H]1CCCO1)C(=O)N[C@@H](CCCCNC(C)C)C(=O)N1CCC[C@H]1C(=O)N[C@H](C)C(N)=O [Example 68, N-(R)-Tetrahydrofur-2-oyl-D2Nal-D4ClPhe-D3Pal-Ser-NMeTyr-DLys(Nic)-Leu-Lys(Isp)-Pro-DAlaNH2] ({Tetrahydrofuroyl(2R)}-[d2Nal][dPhe(4-Cl)][d3Pal]S[NMeY][dK](Nicotinoyl)L[Lys(iPr)]P[dA]-NH2) | 0.0141 nM
CC(C)C[C@H](NC(=O)[C@@H](CCCCNC(=O)c1cccnc1)NC(=O)[C@H](Cc1ccc(O)cc1)N(C)C(=O)[C@H](CO)NC(=O)[C@@H](Cc1cccnc1)NC(=O)[C@@H](Cc1ccc(Cl)cc1)NC(=O)[C@@H](Cc1ccc2ccccc2c1)NC(=O)[C@H]1CCOC1)C(=O)N[C@@H](CCCCNC(C)C)C(=O)N1CCC[C@H]1C(=O)N[C@H](C)C(N)=O [Example 69, N-(S)-Tetrahydrofur-3-oyl-D2Nal-D4ClPhe-D3Pal-Ser-NMeTyr-DLys(Nic)t-Leu-Lys(Isp)-Pro-DAlaNH2] (X7-[d2Nal][dPhe(4-Cl)][d3Pal]S[NMeY][dK](Nicotinoyl)L[Lys(iPr)]P[dA]-NH2) | 0.02 nM
CC(C)C[C@H](NC(=O)[C@@H](CCCCNC(=O)c1cccnc1)NC(=O)[C@H](Cc1ccc(O)cc1)N(C)C(=O)[C@H](CO)NC(=O)[C@@H](Cc1cccnc1)NC(=O)[C@@H](Cc1ccc(Cl)cc1)NC(=O)[C@@H](Cc1ccc2ccccc2c1)NC(=O)[C@@H]1CCOC1)C(=O)N[C@@H](CCCCNC(C)C)C(=O)N1CCC[C@H]1C(=O)N[C@H](C)C(N)=O [Example 70, N-(R)-Tetrahydrofur-3-oyl-D2Nal-D4ClPhe-D3Pal-Ser-NMeTyr-DLys(Nic)-Leu-Lys(Isp)-Pro-DAlaNH2] (X3-[d2Nal][dPhe(4-Cl)][d3Pal]S[NMeY][dK](Nicotinoyl)L[Lys(iPr)]P[dA]-NH2) | 0.0126 nM
CC(C)C[C@H](NC(=O)[C@@H](CCCCNC(=O)c1cccnc1)NC(=O)[C@H](Cc1ccc(O)cc1)N(C)C(=O)[C@H](CO)NC(=O)[C@@H](Cc1cccnc1)NC(=O)[C@@H](Cc1ccc(Cl)cc1)NC(=O)[C@@H](Cc1ccc2ccccc2c1)NC(=O)C1=C[C@@H](O)[C@@H](O)[C@H](O)C1)C(=O)N[C@@H](CCCCNC(C)C)C(=O)N1CCC[C@H]1C(=O)N[C@H](C)C(N)=O [Example 71, N-Shikimyl-D2Nal-D4ClPhe-D3Pal-Ser-NMeTyr-DLys(Nic)-Leu-Lys(Isp)-Pro-DAlaNH2] (Shikimoyl-[d2Nal][dPhe(4-Cl)][d3Pal]S[NMeY][dK](Nicotinoyl)L[Lys(iPr)]P[dA]-NH2) | 0.00708 nM
CC(C)C[C@H](NC(=O)[C@@H](CCCCNC(=O)c1cccnc1)NC(=O)[C@H](Cc1ccc(O)cc1)N(C)C(=O)[C@H](CO)NC(=O)[C@@H](Cc1cccnc1)NC(=O)[C@@H](Cc1ccc(Cl)cc1)NC(=O)[C@@H](Cc1ccc2ccccc2c1)NC(=O)c1ccco1)C(=O)N[C@@H](CCCCNC(C)C)C(=O)N1CCC[C@H]1C(=O)N[C@H](C)C(N)=O [Example 72a, N-2-Furoyl-D2Nal-D4ClPhe-D3Pal-Ser-NMeTyr-DLys(Nic)-Leu-Lys(Isp)-Pro-DAlaNH2] (2Furoyl-[d2Nal][dPhe(4-Cl)][d3Pal]S[NMeY][dK](Nicotinoyl)L[Lys(iPr)]P[dA]-NH2) | 0.01 nM
CC(C)C[C@H](NC(=O)[C@@H](CCCCNC(=O)c1cccnc1)NC(=O)[C@H](Cc1ccc(O)cc1)N(C)C(=O)[C@H](CO)NC(=O)[C@@H](Cc1cccnc1)NC(=O)[C@@H](Cc1ccc(Cl)cc1)NC(=O)[C@@H](Cc1ccc2ccccc2c1)NC(=O)c1ccoc1)C(=O)N[C@@H](CCCCNC(C)C)C(=O)N1CCC[C@H]1C(=O)N[C@H](C)C(N)=O [Example 72b, N-3-Furoyl-D2Nal-D4ClPhe-D3Pal-Ser-NMeTyr-DLys(Nic)-Leu-Lys(Isp)-Pro-DAlaNH2] (X6-[d2Nal][dPhe(4-Cl)][d3Pal]S[NMeY][dK](Nicotinoyl)L[Lys(iPr)]P[dA]-NH2) | 0.0851 nM
